The subject of one series is WiDr (colon). Kind of series: Antiproliferative activity, NCI protocol. To be noted: Homo sapiens, WiDr, read-out: GI50 WiDr (Colon). The series is classed as cell-based, human. As to the method: (§1) Organochalcogen derivatives prepared herein were evaluated in vitro as potential antiproliferative agents, using a panel of six human tumour cell lines: A549 (non-small cell lung), HBL-100 (breast), HeLa (cervix), SW1573 (non-small cell lung), as drug sensitive lines, T-47D (breast) and WiDr (colon) as drug resistant lines. In addition to precursors 2, 6, 7, 13, 14, 17, 19, ebselen and cisplatin (CDDP) were used as reference drugs. […] In both cases, the NCI protocol, with minor modifications, was followed; selected data, including the selectivity index (S.I.) can be found in Table 3 and full data in Supporting Information (Table S1).
(§2) The in vitro antiproliferative activity was assayed using minor modifications of the protocol of the National Cancer Institute (NCI) of the United States against the six human solid tumor cell and the non-tumor cell lines tested.

The test system of series [1] is SW1573 (non-small cell lung). Kind of series: Antiproliferative activity, NCI protocol. The series is classed as cell-based, human. The conditions noted are these: Homo sapiens. The method, then:
as §1, §2

The next series concerns HeLa (cervix). Kind of series: Antiproliferative activity, NCI protocol. The series is classed as cell-based, human. As to the method: as §1, §2
Another series has as its system HBL-100 (breast). Nature of the series: Antiproliferative activity, NCI protocol. The series is classed as cell-based, human. As to the method:
as §1, §2

In series [2] the test system is A549 (non-small cell lung). Nature of the series: Antiproliferative activity, NCI protocol. Format: cell-based, human. As to the method: as §1, §2
Another series deals with T-47D (breast). Kind of series: Antiproliferative activity, NCI protocol. The series is classed as cell-based, human. To be noted: Homo sapiens, T47D, read-out: GI50 T-47D (Breast). The method, then:
as §1, §2

In series [3] the test system is six human tumour cell lines (A549, HBL-100, HeLa, SW1573, T-47D, WiDr). Nature of the series: Antiproliferative activity, panel of six human tumour cell lines. The series is classed as cell-based. To be noted: for GI50: Homo sapiens, read-out: GI50 over the tumour cell lines (range, bound or words). The method, then:
as §1, §2

The nature of series [4]: P-glycoprotein assay, line overexpressing P-gp. To be noted: human, 48 h exposure. Format: cell-based, human. The method, then: (§3) This assay allows prediction of whether a certain chemotherapeutic agent could develop chemoresistance when behaving as a P-gp substrate, one of the most common efllux-pumps used for the extrusion of cell xenobiotics. For that purpose, a cell line-based assay was used, in particular the lung cancer cell line in its wild type (SW1573), and its variant overexpressing P-gp (Sw1573/Pgp). Moreover, compounds were tested in the presence and in the absence of verapamil, which is known to inhibit P-gp. Chemotherapeutic agents paclitaxel (PTX) and vinblastine (VB) are used herein as reference compounds. In this assay, the resistance factor (Rf) for a certain compound is defined as the ratio of GI50 in the cell line overexpressing P-gp and the wild one (Table 4), high values of Rf denoting that the compound behaves as a P-gp substrate, and thus, chemoresistance through this mechanism will probably take place.

In another series the test system is SW1573/Pgp. Kind of series: P-glycoprotein assay, line overexpressing P-gp. The conditions noted are these: ratio between GI50 values in SW1573/PGP and SW1573 cells; for Rf w Verapamil: with verapamil; for Rf w/o Verapamil: without verapamil. Format: cell-based, human. As to the method: as §3
A short description of series [5]: Free radical scavenging (DPPH method). To be noted: 30 min incubation, absorbance at 515 nm; for EC50: read-out: EC50 antiradical activity (DPPH). As to the method: (§4) In vitro antioxidant properties of key unprotected phenolic derivatives were analyzed using two different methodologies: free radical scavenging capacity, using the DPPH method (2,2-diphenyl-1-picrylhydrazyl), a HAT (hydrogen atom transfer) procedure, widely-used for both natural and synthetic derivatives, and also the capacity for scavenging H2O2, one of the most common ROS in degenerative diseases, including cancer.
DPPH is a commercially-available stable free radical commonly used for in vitro testing of radical scavenging properties of antioxidants.
Reported methodology was used with minor modifications. To a 60 µM methanolic DPPH solution (1.17 mL), the antioxidant solution (5–7 different solutions, 30 µL) or solvent (control, 30 µL) were added. After 30 min. of incubation in the dark, absorbance was measured at 515 nm, and EC50 values were calculated.

For the next series, the system named is SW1573. Kind of series: P-glycoprotein assay, wild type line. The conditions noted are these: Homo sapiens, 48 h exposure. Format: cell-based. The method, then:
as §3

A further series relates to BJ-hTert (fibroblasts). Kind of series: Antiproliferative activity on non-tumour cells, NCI protocol. Format: cell-based, human. The conditions noted are these: Homo sapiens, Fibroblast, read-out: GI50 BJ-hTert (Fibroblasts). As to the method: as §1, §2
The nature of series [6]: H2O2 scavenging (phenol red / horseradish peroxidase). To be noted: At 50 µM. The method, then:
as §4
Herein, following Bahorun’s methodology, in vitro levels of H2O2 were measured in an indirect fashion, by registering the H2O2-mediated oxidation of phenol red in the presence of horseradish peroxidase, to give a chromophore with a maximum absorption at 610 nm. Accordingly, in the presence of an antioxidant agent, there is an inverse correlation between the observed absorbance, and the scavenging properties. Table 2 depicts the H2O2-scavenging properties of compounds prepared herein, and tested at a final 50 µM concentration.
Reported methodology was used with minor modifications.

Where [7] appears, read: SW1573, Table S1, read-out: GI50 SW1573 (Lung).
Setting [8] is: Homo sapiens, HeLa; read-out: GI50 HeLa (Cervix).
Setting [9] is: Homo sapiens, HBL-100; read-out: GI50 HBL-100 (Breast).
[10] abbreviates: Homo sapiens, A549; read-out: GI50 A549 (Lung).
Setting [11] is: summary over the tested tumour cell lines, highest tested concentration 100 µM.
[12] abbreviates: with verapamil (concentration not stated), with verapamil, read-out: GI50 SW1573/PGP w Verapamil.
Where [13] appears, read: without verapamil, read-out: GI50 SW1573/PGP w/o Verapamil.
The mark [14] stands for this setting: with verapamil, read-out: GI50 SW153 w Verapamil.
The mark [15] stands for this setting: without verapamil, read-out: GI50 SW1573 w/o Verapamil.

Where two headings read alike, the source gives them in different places.

Regarding `O=C(CCC[Se][Se]CCCC(=O)NCCc1ccc(O)c(O)c1)NCCc1ccc(O)c(O)c1` [Compound 16, 4,4′-Diselenobis{N-[2′’-(3′’’,4′’’-dihydroxyphenyl)ethyl]butanamide}], the GI50 in the series with WiDr (colon) (drug resistant line) worked out at 3900 ± 600 nM; in series [1] (setting [7]) it was 3000 ± 200 nM; in the series on HeLa (cervix) (setting [8]) it was 2300 ± 400 nM; with HBL-100 (breast) (setting [9]) it was 2400 ± 600 nM; in series [2] (setting [10]), 3700 ± 600 nM; with T-47D (breast) (drug resistant line) it was 5800 ± 900 nM. The GI50 in series [3] (setting [11]) is below 6000 nM; in the series on SW1573 (setting [14]), 2300 ± 300 nM; in the series with SW1573 (setting [15]), 2700 ± 300 nM; in the series on BJ-hTert (fibroblasts) (non-tumour cell line), 3500 ± 600 nM. Moreover, the GI50 at 48 h in series [4] (setting [12]) stood at 5100 ± 400 nM; in series [4] (setting [13]), 5100 ± 600 nM. The “Rf w Verapamil” value with SW1573/Pgp is listed as 2.2. The “Rf w/o Verapamil” value in the series with SW1573/Pgp was determined as 1.9. In addition, the concentration giving a half-maximal response (EC50) in [5] amounted to 9300 ± 1300 nM.

Regarding `N#C[Se]Cc1ccc2c(c1)OCO2` [Compound 35, (3′,4′-Methylenedioxyphenyl)methyl selenocyanate], the GI50 in the series with WiDr (colon) (drug resistant line) came to 2000 ± 100 nM; in series [1] (setting [7]), 4400 ± 500 nM; in the series on HeLa (cervix) (setting [8]) it was 3500 ± 800 nM; in the series on HBL-100 (breast) (setting [9]), 3500 ± 1400 nM; in series [2] (setting [10]), 3100 ± 700 nM; in the series with T-47D (breast) (drug resistant line) it was 3400 ± 200 nM. Moreover, the GI50 in the series on SW1573 (setting [14]) amounted to 3100 ± 1000 nM; in the series on SW1573 (setting [15]), 2300 ± 500 nM; in the series on BJ-hTert (fibroblasts) (non-tumour cell line), 8700 ± 3200 nM. The “GI50 over the tumour cell lines (range, bound or words)” value in [3] (setting [11]) is on record as “low micromolar‒submicromolar activities”. Besides, the GI50 at 48 h in [4] (setting [12]) amounted to 7000 ± 600 nM; in [4] (setting [13]) it was 7100 ± 600 nM. Further, in the series with SW1573/Pgp, the “Rf w Verapamil” value is 2.3. For the same molecule, the “Rf w/o Verapamil” value in the series with SW1573/Pgp stood at 3.1.

With `O=C(CCC[Se][Se]CCCC(=O)NCCc1ccc2c(c1)OCO2)NCCc1ccc2c(c1)OCO2` [Compound 46, 4,4’-Diselenobis{N-[2′’-(3′’’,4′’’-Methylenedioxyphenyl)ethyl]butanamide}], the GI50 stood at 250 ± 60 nM with WiDr (colon); 300 ± 30 nM in series [1] (SW1573, read-out: GI50 SW1573 (Lung)); 120 ± 10 nM in the series on HeLa (cervix) (Homo sapiens, HeLa, read-out: GI50 HeLa (Cervix)); 250 ± 20 nM in the series on HBL-100 (breast) (Homo sapiens, HBL-100, read-out: GI50 HBL-100 (Breast)); 270 ± 20 nM in [2] (Homo sapiens, A549, read-out: GI50 A549 (Lung)); 190 ± 40 nM in the series on T-47D (breast). The values for the GI50 (in [3]; with BJ-hTert (fibroblasts)) were 120 to 300 nM and 1000 ± 100 nM, respectively. Besides, in series [6], the “% Scavenging of H2O2” value was “complete loss of ROS scavenging properties and ---”. The “fold improvement of potency against tumour cell lines compared to 16” value in series [3] (46 (acetal) versus 16 (free catechol)) is “up to 30 fold”. The “fold increase in activity compared to CDDP” value in [3] (multidrug resistant cell lines (T-47D, WiDr)) was at most 104 fold. Further, the “EC50 antiradical activity (DPPH)” value in [5] is given as “complete impairment of activity”. In addition, the half-maximal effective concentration (EC50) in series [5] was above 250000 nM.

In the case of `c1cc2c(cc1C[Se][Se]Cc1ccc3c(c1)OCO3)OCO2` [Compound 39, Bis[(3’, 4’-methylenedioxyphenyl)methyl]diselenide], the GI50 with WiDr (colon) (drug resistant line) is 1600 ± 300 nM; in series [1] (setting [7]), 3200 ± 900 nM; in the series on HeLa (cervix) (setting [8]), 2400 ± 1400 nM; with HBL-100 (breast) (setting [9]), 2900 ± 600 nM; in series [2] (setting [10]), 1200 ± 300 nM; with T-47D (breast) (drug resistant line) it was 2900 ± 400 nM. For the same molecule, the GI50 in the series on SW1573 (setting [14]) came out at 2500 ± 100 nM; in the series on SW1573 (setting [15]), 3000 ± 500 nM; in the series with BJ-hTert (fibroblasts) (non-tumour cell line), 3900 ± 1000 nM. Also, in series [6], the “% Scavenging of H2O2” value is “complete loss of ROS scavenging properties and ---”. In [3] (setting [11]), the “GI50 over the tumour cell lines (range, bound or words)” value was “low micromolar‒submicromolar activities”. Besides, the GI50 at 48 h in series [4] (setting [12]) turned out to be 5100 ± 400 nM; in series [4] (setting [13]), 18000 ± 100 nM. In the series with SW1573/Pgp, the “Rf w Verapamil” value is on record as 2.0. For the same molecule, the “Rf w/o Verapamil” value with SW1573/Pgp is reported as 6.0. Also, in series [5], the “EC50 antiradical activity (DPPH)” value is “complete impairment of activity”. Moreover, the EC50 in [5] was above 250000 nM.

`c1cc2c(cc1CC[Se][Se]CCc1ccc3c(c1)OCO3)OCO2` [Compound 40, Bis[2-(3′,4′-methylenedioxyphenyl)ethyl]diselenide]: the GI50 in the series with WiDr (colon) (drug resistant line) came to 1200 ± 100 nM; in [1] (setting [7]), 2700 ± 300 nM; in the series with HeLa (cervix) (setting [8]), 950 ± 70 nM; with HBL-100 (breast) (setting [9]) it was 2000 ± 900 nM; in series [2] (setting [10]) it was 1600 ± 500 nM; in the series with T-47D (breast) (drug resistant line), 880 ± 170 nM. The GI50 was determined as 1800 ± 200 nM in the series on SW1573 (setting [14]), 1900 ± 100 nM in the series on SW1573 (setting [15]) and 28000 ± 5000 nM in the series on BJ-hTert (fibroblasts) (non-tumour cell line). For the same molecule, the “GI50 over the tumour cell lines (range, bound or words)” value in series [3] (setting [11]) is on record as “low micromolar‒submicromolar activities”. Besides, the values for the GI50 at 48 h in [4] (setting [12]) and in series [4] (setting [13]) were 4500 ± 1000 nM and 3900 ± 200 nM, respectively. In addition, the “Rf w Verapamil” value with SW1573/Pgp was 2.5. In addition, the “Rf w/o Verapamil” value in the series on SW1573/Pgp is on record as 2.0.

A word on the EC50: it is the midpoint of the concentration-response curve.
